Consider one compound from ChEMBL document CHEMBL4354833, “Kinetic Target-Guided Synthesis: Reaching the Age of Maturity” (J Med Chem, 2020).

In the assay the target is T1, Prostaglandin G/H synthase 2 (Homo sapiens, UniProt P35354).
T1 sequence (P35354 whole entry): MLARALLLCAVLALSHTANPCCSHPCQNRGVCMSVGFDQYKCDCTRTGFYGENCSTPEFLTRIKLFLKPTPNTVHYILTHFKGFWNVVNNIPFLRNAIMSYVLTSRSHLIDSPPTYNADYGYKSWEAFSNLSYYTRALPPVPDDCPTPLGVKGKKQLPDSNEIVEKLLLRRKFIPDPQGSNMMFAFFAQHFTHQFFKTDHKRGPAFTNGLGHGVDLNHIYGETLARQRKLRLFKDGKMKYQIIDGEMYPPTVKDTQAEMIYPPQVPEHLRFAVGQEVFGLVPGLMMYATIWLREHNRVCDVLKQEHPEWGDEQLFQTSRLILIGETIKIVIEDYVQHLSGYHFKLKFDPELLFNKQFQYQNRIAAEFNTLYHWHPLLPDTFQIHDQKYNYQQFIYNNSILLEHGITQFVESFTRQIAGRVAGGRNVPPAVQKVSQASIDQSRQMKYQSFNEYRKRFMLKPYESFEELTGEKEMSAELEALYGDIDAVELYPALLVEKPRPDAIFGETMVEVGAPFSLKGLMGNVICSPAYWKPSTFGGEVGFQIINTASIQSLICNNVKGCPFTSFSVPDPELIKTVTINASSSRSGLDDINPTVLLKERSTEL
Nature of the assay: Binding affinity to human COX2.

By Kd is commonly meant a measure of binding affinity in units of concentration. A high value points to weaker binding. With `Cc1cnc(Cn2cc(-c3onc(-c4ccccc4)c3-c3ccc(S(N)(=O)=O)cc3)nn2)c(C)c1[18F]`, the Kd is 10 nM.
